According to US20240043928A1, “BIOMARKERS FOR MYELODYSPLASTIC SYNDROME (MDS) AND METHODS OF USING THE SAME” (Eisai R&D Management Co., Ltd., priority 2020, published 2024):

Experiment: Phase I study NCT02841540: treatment-related adverse events and dose-limiting toxicities
Format: in vivo, human
Source text: Patients were enrolled using a conventional 3+3 dose escalation phase I design, with escalations based on a modified Fibonacci sequence scheme (Storer Biometrics. 1989;45(3):925-937). Dose escalations continued until a dose level at which ≥2 patients of the 3-6 enrolled experienced a dose-limiting toxicity (DLT). Maximally tolerated dose (MTD) was defined as the highest dose at which no more than 1 out of 6 patients experienced a DLT. DLTs were defined as any of the following: any Grade 3 or greater study drug-related non-hematologic toxicity except for Grade 3 nausea, vomiting, fatigue, or diarrhea that resolved to Grade 1 or less within 1 week; failure to administer at least 70% of the protocol-specific dose; or prolonged myelosuppression with the persistence of Grade 4 cytopenia in the absence of persistent leukemia or blast increase 21 or more days after suspending dosing. DLTs were assessed during the first 28 days using National Cancer Institute (NCI) Common Toxicity Criteria for Adverse Events (CTCAE) version 4.03.
The primary endpoints measured included occurrence of DLTs, the type and frequency of treatment-emergent adverse events (TEAEs), and serious adverse events (SAEs). Key secondary endpoints included drug pharmacokinetics (PK) and preliminary antitumor activity, such as the overall response rate (ORR), effect of drug therapy on transfusion requirements, and overall survival (OS). Biomarker analyses and drug pharmacodynamics (PD) were included as exploratory endpoints. […] In addition, a second schedule (Schedule II) of 21 days on therapy and a rest of 7 days without therapy was explored. […] However, when limited clinical activity was observed on Schedule I, Schedule II was introduced to test whether more prolonged spliceosome modulation would lead to higher clinical activity. Each treatment cycle was 28 days in length. Patients could continue treatment until disease progression or development of unacceptable toxicity.
Eligibility criteria included normal vitamin A levels and visual acuity that corrected to 20/40 unless a cataract was present. Ophthalmologic evaluation, including fundoscopic imaging and visual evoked potentials, was performed during study screening and periodically throughout the duration of the trial.

In the case of `C/C(=C\C=C\[C@@H](C)c1ccccn1)[C@H]1OC(=O)C[C@H](O)CC[C@@](C)(O)[C@@H](OC(=O)N2CCN(C)CC2)/C=C/[C@@H]1C` [Compound 1, (2S,3S,4E,6S,7R,10R)-7,10-dihydroxy-3,7-dimethyl-12-oxo-2-[(2E,4E,6R)-6-(pyridine-2-yl)hepta-2,4-dien-2-yl]oxacyclododec-4-en-6-yl-4-methylpiperazine-1-carboxylate], the “Any TEAE (treatment-related, all grades)” value (Schedule II, 7 mg QD, N = 5) is reported as 1 (20) n (%), the “Diarrhea (treatment-related TEAE, all grades)” value (Schedule II, 7 mg QD, N = 5) is reported as 1 (20) n (%) and the “Dysgeusia (treatment-related TEAE, all grades)” value (Schedule II, 7 mg QD, N = 5) is reported as 0 n (%). The “ECG QTcF prolonged (treatment-related TEAE, all grades)” value (Schedule II, 7 mg QD, N = 5) was 0 n (%), the “Fatigue (treatment-related TEAE, all grades)” value (Schedule II, 7 mg QD, N = 5) was 0 n (%) and the “Hypophosphatemia (treatment-related TEAE, all grades)” value (Schedule II, 7 mg QD, N = 5) was 0 n (%). The “Nausea (treatment-related TEAE, all grades)” value (Schedule II, 7 mg QD, N = 5) was 0 n (%), the “Vomiting (treatment-related TEAE, all grades)” value (Schedule II, 7 mg QD, N = 5) was 0 n (%) and the “dose dependency of treatment related AEs” value (Schedule II, 7 mg-20 mg) was “dose dependency trend”. For the same compound, the “Any TEAE (treatment-related, all grades)” value (Schedule II, 12 mg QD, N = 5) was 4 (80) n (%), the “Diarrhea (treatment-related TEAE, all grades)” value (Schedule II, 12 mg QD, N = 5) was 1 (20) n (%) and the “Dysgeusia (treatment-related TEAE, all grades)” value (Schedule II, 12 mg QD, N = 5) was 1 (20) n (%). The “ECG QTcF prolonged (treatment-related TEAE, all grades)” value (Schedule II, 12 mg QD, N = 5) was 0 n (%), the “Fatigue (treatment-related TEAE, all grades)” value (Schedule II, 12 mg QD, N = 5) was 1 (20) n (%) and the “Hypophosphatemia (treatment-related TEAE, all grades)” value (Schedule II, 12 mg QD, N = 5) was 2 (40) n (%). The “Nausea (treatment-related TEAE, all grades)” value (Schedule II, 12 mg QD, N = 5) was 1 (20) n (%), the “Vomiting (treatment-related TEAE, all grades)” value (Schedule II, 12 mg QD, N = 5) was 0 n (%) and the “patients with DLT grade 3 sinus bradycardia” value (Schedule II, 14 mg) was 1 of 5. For the same compound, the “Any TEAE (treatment-related, all grades)” value (Schedule II, 14 mg QD, N = 5) was 4 (80) n (%), the “Diarrhea (treatment-related TEAE, all grades)” value (Schedule II, 14 mg QD, N = 5) was 2 (40) n (%) and the “Dysgeusia (treatment-related TEAE, all grades)” value (Schedule II, 14 mg QD, N = 5) was 0 n (%). For the same compound, the “ECG QTcF prolonged (treatment-related TEAE, all grades)” value (Schedule II, 14 mg QD, N = 5) was 1 (20) n (%), the “Fatigue (treatment-related TEAE, all grades)” value (Schedule II, 14 mg QD, N = 5) was 0 n (%) and the “Hypophosphatemia (treatment-related TEAE, all grades)” value (Schedule II, 14 mg QD, N = 5) was 0 n (%). The “Nausea (treatment-related TEAE, all grades)” value (Schedule II, 14 mg QD, N = 5) was 0 n (%), the “Vomiting (treatment-related TEAE, all grades)” value (Schedule II, 14 mg QD, N = 5) was 1 (20) n (%) and the “patients with DLTs (Grade 3 QTc prolongation; Grade 3 nausea)” value (Schedule II, 20 mg) was 2 of 4. The “subjects reporting grade 3 AEs” value (Schedule II, 20 mg) was 3 of the 4, the “Any TEAE (treatment-related, all grades)” value (Schedule II, 20 mg QD, N = 4) was 4 (100) n (%) and the “Diarrhea (treatment-related TEAE, all grades)” value (Schedule II, 20 mg QD, N = 4) was 4 (100) n (%). For the same compound, the “Dysgeusia (treatment-related TEAE, all grades)” value (Schedule II, 20 mg QD, N = 4) was 1 (25) n (%), the “ECG QTcF prolonged (treatment-related TEAE, all grades)” value (Schedule II, 20 mg QD, N = 4) was 2 (50) n (%) and the “Fatigue (treatment-related TEAE, all grades)” value (Schedule II, 20 mg QD, N = 4) was 1 (25) n (%). The “Hypophosphatemia (treatment-related TEAE, all grades)” value (Schedule II, 20 mg QD, N = 4) was 0 n (%), the “Nausea (treatment-related TEAE, all grades)” value (Schedule II, 20 mg QD, N = 4) was 2 (50) n (%) and the “Vomiting (treatment-related TEAE, all grades)” value (Schedule II, 20 mg QD, N = 4) was 3 (75) n (%). For the same compound, the “Anemia (Grade 3 or 4 treatment-related TEAE)” value (Schedule II, N = 19) was 0 n (%), the “ECG QTcF prolonged (Grade 3 or 4 treatment-related TEAE)” value (Schedule II, N = 19) was 1 (5) n (%) and the “Fatigue (Grade 3 or 4 treatment-related TEAE)” value (Schedule II, N = 19) was 1 (5) n (%). The “Hypophosphatemia (Grade 3 or 4 treatment-related TEAE)” value (Schedule II, N = 19) was 1 (5) n (%), the “Nausea (Grade 3 or 4 treatment-related TEAE)” value (Schedule II, N = 19) was 1 (5) n (%) and the “Platelet count decreased (Grade 3 or 4 treatment-related TEAE)” value (Schedule II, N = 19) was 1 (5) n (%). The “Sinus bradycardia (Grade 3 or 4 treatment-related TEAE)” value (Schedule II, N = 19) was 1 (5) n (%), the “Any TEAE (treatment-related, all grades)” value (Schedule II, Total, N = 19) was 13 (68) n (%) and the “Diarrhea (treatment-related TEAE, all grades)” value (Schedule II, Total, N = 19) was 8 (42) n (%). For the same compound, the “Dysgeusia (treatment-related TEAE, all grades)” value (Schedule II, Total, N = 19) was 2 (11) n (%), the “ECG QTcF prolonged (treatment-related TEAE, all grades)” value (Schedule II, Total, N = 19) was 3 (16) n (%) and the “Fatigue (treatment-related TEAE, all grades)” value (Schedule II, Total, N = 19) was 2 (11) n (%). The “Hypophosphatemia (treatment-related TEAE, all grades)” value (Schedule II, Total, N = 19) was 2 (11) n (%), the “Nausea (treatment-related TEAE, all grades)” value (Schedule II, Total, N = 19) was 3 (16) n (%) and the “Vomiting (treatment-related TEAE, all grades)” value (Schedule II, Total, N = 19) was 4 (21) n (%). The “QTcF (Fridericia method) prolongation, treatment-related TEAE” value (Schedule II, all patients) was 16%, the “diarrhea, treatment-related TEAE” value (Schedule II, all patients) was 42% and the “dysgeusia, treatment-related TEAE” value (Schedule II, all patients) was 11%. For the same compound, the “fatigue, treatment-related TEAE” value (Schedule II, all patients) was 11%, the “hypophosphatemia, treatment-related TEAE” value (Schedule II, all patients) was 11% and the “nausea, treatment-related TEAE” value (Schedule II, all patients) was 16%. The “vomiting, treatment-related TEAE” value (Schedule II, all patients) was 21%, the “subjects with treatment related AEs (all grades)” value (Schedule II, highest dose level tested) was 100% and the “subjects with treatment related AEs (all grades)” value (Schedule II, lowest dose level tested) was 20%. The “patients who experienced an AE characterized as a DLT” value (both schedules) was 6 patients, the “subjects reporting treatment related AEs (all grades)” value (both schedules) was 63 subjects and the “subjects who reported grade 3 treatment related AEs” value (both schedules) was 12 subjects. The ocular adverse event (in vivo) was “One event of Grade 3 ocular papilledema was reported, without loss in visual acuity”.
